# Source: patent US8618163B2, “Derivatives of cycloalkyl- and cycloalkenyl-1,2-dicarboxylic acid compounds having formyl peptide receptor like-1 (FPRL-1) agonist or antagonist activity” (Allergan, Inc., priority 2010, dated 2013)
# Like-named read-outs stand apart in the source and are kept apart here.
# How the values were obtained:
# FPR1 = biological target: T1, FPR1 (Homo sapiens, UniProt P21462); assay: compound-induced calcium activity on FLIPR Tetra in HEK-Gqi5 cells stable expressing FPR1; type: cell-based; set-up: FPR1 (rel. eff.): scale not given here; conditions: for FPR1 (rel. eff.): relative efficacy
# T1 construct: expressed in transfected cells; host or cells: HEK-Gqi5 (HEK cells with chimeric G protein Gqi5)
# T1 sequence (P21462 1-350): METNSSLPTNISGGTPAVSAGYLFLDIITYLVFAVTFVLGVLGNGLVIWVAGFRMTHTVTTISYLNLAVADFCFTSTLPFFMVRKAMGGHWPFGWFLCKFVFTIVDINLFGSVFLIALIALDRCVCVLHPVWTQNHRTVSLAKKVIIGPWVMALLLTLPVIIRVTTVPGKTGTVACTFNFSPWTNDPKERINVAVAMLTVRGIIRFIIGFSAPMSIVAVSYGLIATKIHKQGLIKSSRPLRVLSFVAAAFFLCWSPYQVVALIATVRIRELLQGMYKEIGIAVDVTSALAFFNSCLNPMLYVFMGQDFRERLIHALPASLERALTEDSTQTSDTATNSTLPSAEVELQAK
# Protocol: (§1) CHO-Gal6 cells stably expressing FPRL1 were cultured in (F12, 10% FBS, 1% PSA, 400 μg/ml geneticin and 50 μg/ml hygromycin) and HEK-Gqi5 cells stable expressing FPR1 were cultured in (DMEM high glucose, 10% FBS, 1% PSA, 400 μg/ml geneticin and 50 μg/ml hygromycin). In general, the day before the experiment, 18,000 cells/well were plated in a 384-well clear bottom poly-d-lysine coated plate. The following day the screening compound-induced calcium activity was assayed on the FLIPR^Tetra. The drug plates were prepared in 384-well microplates using the EP3 and the MultiPROBE robotic liquid handling systems. Compounds were tested at concentrations ranging from 0.61 to 10,000 nM. Results are expressed as EC50 (nM) and efficacy values.
# FPRL1 = biological target: T2, FPRL1 (Homo sapiens, UniProt P25090); assay: compound-induced calcium activity on FLIPR Tetra in CHO-Gal6 cells stably expressing FPRL1; type: cell-based; conditions: for FPRL1 (rel. eff.): relative efficacy
# T2 construct: expressed in transfected cells; host or cells: CHO-Gal6 (CHO cells with G alpha 16)
# T2 sequence (P25090 1-351): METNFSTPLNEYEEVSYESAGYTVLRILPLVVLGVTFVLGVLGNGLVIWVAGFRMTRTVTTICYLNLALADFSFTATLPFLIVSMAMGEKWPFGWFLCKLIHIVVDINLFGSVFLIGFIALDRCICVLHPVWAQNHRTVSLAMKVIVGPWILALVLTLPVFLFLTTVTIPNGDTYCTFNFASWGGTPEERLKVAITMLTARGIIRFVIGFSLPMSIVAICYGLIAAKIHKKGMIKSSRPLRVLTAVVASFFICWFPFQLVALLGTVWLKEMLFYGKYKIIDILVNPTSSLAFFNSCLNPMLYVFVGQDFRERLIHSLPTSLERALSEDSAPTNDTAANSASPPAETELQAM
# Protocol: as §1
# [1] = class symbol NA, read-out: FPR1 EC50 (NA = Not Active)
# [2] = calcium, FLIPR Tetra, tested 0.61 to 10,000 nM, read-out: FPRL1 EC50
# [3] = calcium, FLIPR Tetra, tested 0.61 to 10,000 nM, read-out: FPR1 EC50
EC50 (FPR1; [1]),EC50 (FPRL1; [2]),"FPRL1 (rel. eff.) (FPRL1; calcium, FLIPR Tetra)","EC50 (FPRL1; class symbol NA, read-out: FPRL1 EC50 (NA = Not Active))",EC50 (FPR1; [3]),"FPR1 (rel. eff.) (FPR1; calcium, FLIPR Tetra)",Compound
> 10000 nM,709 nM,0.84,,,,"O=C(O)C1C(C(=O)Nc2ccc(SC(F)(F)F)cc2)C2C=CC1C21CC1 (racemic) [Compound 4, (+/−)-(1S,4R,5S,6R)-6-(4-(Trifluoromethylthio)phenylcarbamoyl)Spiro[bicyclo[2.2.1]hept[2]ene-7,1′-cyclopropane]-5-carboxylic Acid]"
> 10000 nM,,,> 10000 nM,,,"CC(C)(C)c1ccc(NC(=O)C2C(C(=O)O)C3C=CC2C32CC2)cc1 (racemic) [Compound 5, (+/−)-(1R,4S,5R,6S)-5-(4-tert-Butylphenylcarbamoyl)spiro[bicyclo[2.2.1]hept[2]ene-7,1′-cyclopropane]-6-carboxylic Acid]"
> 10000 nM,,ND (0.39),,,,"CC(C)c1ccc(NC(=O)C2C(C(=O)O)C3C=CC2C32CC2)cc1 (racemic) [Compound 6, (+/−)-(1S,4R,5S,6R)-6-(4-Isopropylphenylcarbamoyl)spiro[bicyclo[2.2.1]hept[2]ene-7,1′-cyclopropane]-5-carboxylic Acid]"
> 10000 nM,,ND (0.33),,,,"O=C(O)C1C(C(=O)Nc2ccccc2)C2C=CC1C21CC1 (racemic) [Compound 7, (+/−)-(1S,4R,5S,6R)-6-(Phenylcarbamoyl)spiro[bicycle[2.2.1]hept[2]ene-7,1′cyclopropane]-5-carboxylic Acid]"
> 10000 nM,2710 nM,0.51,,,,"NS(=O)(=O)c1ccc(NC(=O)C2C(C(=O)O)C3C=CC2C32CC2)cc1 (racemic) [Compound 8, (+/−)-(1S,4R,5S,6R)-6-(4-Sulfamoylphenylcarbamoyl)spiro[bicyclo[2.2.1]hept[2]ene-7,1′-cyclopropane]-5-carboxylic Acid]"
,1 nM,0.80,,269 nM,0.73,"O=C(O)[C@@H]1[C@H](C(=O)Nc2ccc(I)cc2)[C@@H]2CC[C@H]1C21CC1 (racemic) [Compound 9, (+/−)-(1R,2S,3R,4S)-3-(4-Iodophenylcarbamoyl)spiro[bicyclo[2.2.1]heptane-7,1′-cyclopropane]-2-carboxylic Acid]"
> 10000 nM,278 nM,0.82,,,,O=C(O)C1C(C(=O)Nc2ccc(Br)cc2)C2CCC1C21CC1 (racemic) [Compound 10A]
,43 nM,0.86,,,,"O=C(O)[C@@H]1[C@H](C(=O)Nc2ccc(Cl)cc2)[C@@H]2CC[C@H]1C21CC1 (racemic) [Compound 11, (+/−)-(1R,2S,3R,4S)-3-(4-Chlorophenylcarbamoyl)spiro[bicyclo[2.2.1]heptane-7,1′-cyclopropane]-2-carboxylic Acid]"
,,,,343 nM,68,"CC1(C)[C@@H]2CC[C@H]1[C@@H](C(=O)Nc1ccc(I)cc1)[C@H]2C(=O)O (racemic) [Compound 12, (+/−)-(1R,2S,3R,4S)-3-(4-Iodophenylcarbamoyl)-7,7-dimethylbicyclo[2.2.1]heptane-2-carboxylic Acid]"
,,0.85,,639 nM,0.33,"CC1(C)[C@@H]2CC[C@H]1[C@@H](C(=O)Nc1ccc(Br)cc1)[C@H]2C(=O)O (racemic) [Compound 13, (+/−)-(1R,2S,3R,4S)-3-(4-Bromophenylcarbamoyl)-7,7-dimethylbicyclo[2.2.1]heptane-2-carboxylic Acid]"
,403 nM,0.72,,,,"COC(=O)C1C(C(=O)Nc2ccc(I)cc2)C2C=CC1C21CC1 (racemic) [Compound 16, Methyl(+/−)-(1S,4R,5S,6R)-6-(4-Iodophenylcarbamoyl)spiro[bicyclo[2.2.1]hept[2]ene-7,1′-cyclopropane]-5-carboxylate]"
,,,,8030 nM,62,"CC(C)=C1C2C=CC1C(C(=O)Nc1ccc(I)cc1)C2C(=O)O (racemic) [Compound 22, (+/−)-(1S,4R,5S,6R)-6-(4-Iodophenylcarbamoyl)[bicyclo[2.2.1]hept[2]ene-7-propan-2-ylidene]-5-carboxylic Acid]"
,3170 nM,1.1,,,,"COc1ccccc1NC(=O)C1C(C(=O)O)C2C=CC1C21CC1 (racemic) [Compound 29, (+/−)-(1S,4R,5S,6R)-6-((2-Methoxyphenyl)carbamoyl)spiro[bicyclo[2.2.1]hept[2]ene-7,1′-cyclopropane]-5-carboxylic Acid]"
,2880 nM,0.97,,,,"N#Cc1ccc(-c2ccc(NC(=O)C3C(C(=O)O)C4C=CC3C43CC3)cc2)cc1 (racemic) [Compound 30, (+/−)-(1S,4R,5S,6R)-6-((4′-Cyano-[1,1′-biphenyl]-4-yl)carbamoyl)spiro[bicyclo-[2.2.1]hept[2]ene-7,1′-cyclopropane]-5-carboxylic Acid]"
,978 nM,0.86,,,,"O=C(O)C1C(C(=O)Nc2cccc(C(F)(F)F)c2)C2CCC1C21CC1 (racemic) [Compound 37, (+/−)-(1R,2S,3R,4S)-3-β3-(Trifluoromethyl)phenyl)carbamoyl)spiro[bicyclo-[2.2.1]heptane-7,1′-cyclopropane]-2-carboxylic Acid]"
,498 nM,1.00,,,,"O=C(O)[C@@H]1[C@H](C(=O)Nc2ccc(Cl)c(Cl)c2)[C@@H]2CC[C@H]1C21CC1 (racemic) [Compound 38, (+/−)-(1R,2S,3R,4S)-3-((3,4-Dichlorophenyl)carbamoyl)spiro[bicyclo[2.2.1]heptane-7,1′-cyclopropane]-2-carboxylic Acid]"
,> 3000 nM,1.2,,,,"COc1ccccc1NC(=O)[C@H]1[C@@H](C(=O)O)[C@H]2CC[C@@H]1C21CC1 (racemic) [Compound 39, (+/−)-(1R,2S,3R,4S)-3-((2-Methoxyphenyl)carbamoyl)spiro[bicyclo[2.2.1]heptane-7,1′-cyclopropane]-2-carboxylic Acid]"
> 10000 nM,,,,,,"NC(=O)C1C(C(=O)Nc2ccc(Br)cc2)C2C=CC1C21CC1 (racemic) [Compound 47, (+/−)-(1R,4S,5R,6S)—N-5-(4-Bromophenyl)spiro[bicyclo[2.2.1]hept[2]ene-7,1′-cyclopropane]-5,6-dicarboxamide]"
> 10000 nM,,,,,,"CC1(C)[C@@H]2CC[C@H]1[C@@H](C(=O)Nc1ccc(Br)cc1)[C@H]2C(N)=O (racemic) [Compound 54, (+/−)-(1S,2R,3S,4R)—N2-(4-Bromophenyl)-7,7-dimethylbicyclo[2.2.1]heptane-2,3-dicarboxamide]"
,3720 nM,0.5,,,,"CN(C)C(=O)C1C(C(=O)Nc2ccc(Br)cc2)C2C=CC1C21CC1 (racemic) [Compound 76, (+/−)-(1S,4S,5R,6S)—N^5-(4-Bromophenyl)-N^6,N^6-dimethylspiro[bicyclo[2.2.1]hept[2]ene]-7,1′-cyclopropane]-5,6-dicarboxamide]"
,1680 nM,0.68,,,,"COC(=O)C1C(C(=O)Nc2ccc(Br)cc2)C2CCC1C21CC1 (racemic) [Compound 83, (+/−)-(1S,4S,5R,6S)-Methyl 2-((4-bromophenyl)carbamoyl)spiro[bicyclo[2.2.1]heptane-7,1′-cyclopropane]-3-carboxylate]"
,1370 nM,0.74,,,,"CCOC(=O)[C@@H]1[C@H](C(=O)Nc2ccc(Br)cc2)[C@@H]2CC[C@H]1C21CC1 (racemic) [Compound 84, (+/−)-(1S,2R,3S,4R)-Ethyl 2-((4-bromophenyl)carbamoyl)spiro[bicyclo[2.2.1]heptane-7,1′-cyclopropane]-3-carboxylate]"
,6560 nM,0.38,,,,"O=C1[C@@H]2[C@H](C(=O)N1c1ccc(Br)cc1)[C@@H]1CC[C@H]2C12CC2 [Compound 90, (3aR,4S,7R,7aS)-2-(4-Bromophenyl)-hexahydro-1H-spiro[4,7-methanoisoindole-8,1′-cyclopropane]-1,3(2H)-dione]"
> 10000 nM,,,,,,"(+/−)-(1R,2S,3R,4S)-3-((4-(Methylsulfonyl)phenyl)carbamoyl)spiro[bicyclo[2.2.1]-heptane-7,1′-cyclopropane]-2-carboxylic Acid [Compound 71]"
